The text below walks through data of patent US11517587B2, “Drug therapy to inhibit chemotherapy-induced adverse effects and related pharmaceutical compositions, diagnostics, screening techniques and kits” (YALE UNIVERSITY, priority 2011, dated 2022).

For series [1], the system named is NCS-1. As to the kind of experiment: NCS-1 levels by Western blot in Taxol-treated SHSY-5Y neuroblastoma cells. The format is cell-based.
From the text: (§1) Data shown are the average of three experiments.
as §1
More specifically, AV411 (ibudilast) is a drug used in several Asian countries for treatment of bronchial asthma, cerebrovascular disorders, post-stroke dizziness, and ocular allergies. In accordance with the Materials and Methods section of PNAS, Jun.
as §1
A general note: In western blotting, separated proteins are transferred to a membrane and probed.

The subject of series [2] is SHSY-5Y cells. As to the kind of experiment: Intracellular Ca2+ signal in stimulated SHSY-5Y cells. The format is cell-based. The procedure:
FIG. 2A: Protection of the intracellular calcium signal by 1 uM AV411. […] After 200 seconds thapsigargin (TG, an inhibitor of the intracellular Ca^2+ pump) was added to indicate that the intracellular stores were filled and the cells were viable (second arrow). […] Each line represents the average of at least 45 cells (at least 15 cells measured in three separate experiments).
FIG. 2B: Protection of the intracellular calcium signal by 500 uM LiCl. Representative Ca^2+ responses of SHSY-5Y cells stimulated with 200 nM carbachol (at first arrow) to induce a transient release of Ca^2+ from intracellular stores. After 200 seconds thapsigargin (TG, an inhibitor of the intracellular Ca^2+ pump) was added to indicate that the intracellular stores were filled and the cells were viable (second arrow). […] Addition of 500 uM LiCl alone (pink trace)induced a small decrease in the Ca^2+ transient. […] Each line represents the average of at least 45 cells (at least 15 cells measured in three separate experiments.
FIG. 3B: Protection of the intracellular calcium signal by 5.0 mM LiCl. Representative Ca^2+ responses of SHSY-5Y cells treated with 800 ng/mL Taxol for 6 hours in the presence and absence of 5.0 mM. The experiment is the same as described for FIG. 2 except that 5 mM LiCl was used.
[…] After 200 seconds thapsigargin (TG, an inhibitor of the intracellular Ca^2+ pump) was added to indicate that the intracellular stores were filled and the cells were viable (second arrow). […] Each line represents the average of at least 45 cells (at least 15 cells measured in three separate experiments).
Intracellular Ca^2+ signals monitored in intact cells were also found to be reduced by treatment with Taxol for 6 hours (FIGS. 2B and 3B; compare control treatment (black trace) with Taxol treatment (blue trace) in both figures).

The test system of series [3] is lung cancer cell line (H1975). As to the kind of experiment: Xenograft tumor volume in nude mice. The format is in vivo. Conditions: LiCl in the presence of Taxol treatment, short time after initiation of co-therapy. How it is done: FIG. 4B: tumor volume effect.
One or more murine models as described in Richmond, et al., Mouse xenograft models vs GEM models for human cancer therapeutics, Dis Model Mech. 2008 September-October; 1(2-3): 78-82, are prepared. As explained by Richmond, et al., “[t]hese models are used to investigate the factors involved in malignant transformation, invasion and metastasis, as well as to examine response to therapy. One of the most widely used models is the human tumor xenograft. […] For example, the xenograft will be readily accepted by athymic nude mice, severely compromised immunodeficient (SCID) mice, or other immunocompromised mice (Morton and Houghton, 2007). Depending upon the number of cells injected, or the size of the tumor transplanted, the tumor will develop over 1-8 weeks (or in some instances 1-4 months, or longer), and the response to appropriate therapeutic regimes can be studied in vivo.”
Pursuant to the above protocol, a lung cancer cell line (H1975) was injected into nude mice; after two weeks tumors were large enough to measure. Exemplary dosages for use in the above murine models include 25 mg/kg taxol injected 1 time per week (2×), lithium (12.8 mg/kg) injected 1 hour prior to paclitaxel injection. Protection of NCS-1 levels and intracellular Ca^2+ signals in cells is evaluated using techniques as described in Examples 1-3.

The target in series [4] is NCS-1 / inositol 1,4,5 trisphosphate receptor (InsP3R) (Homo sapiens, UniProt P62166). Put plainly: NCS-1 binding to the InsP3R. From the text: Based upon our observations regarding the activity of lithium carbonate, valproic acid, and chlorpromazine, we believe that there are additional drugs in these classes that will have the desired effect of preventing chemotherapy-induced polyneuropathy such as, but not limited to, […].

Series [5] concerns the target NCS-1 (Homo sapiens, UniProt P62166). As to the kind of experiment: Tryptophan fluorescence binding to NCS-1.
In series [6] the test system is microtubule assembly. As to the kind of experiment: Microtubule assembly. The format is biochemical. How it is done:
FIG. 5: Paclitaxel speeds up microtubule assembly.
The relative effects of paclitaxel-LiCl and paclitaxel-AV411 co-administration on microtubule assembly were also determined.

Series [7] has as its system mice. As to the kind of experiment: Paclitaxel-induced myelin damage in mice. The format is in vivo. The settings on record: paclitaxel-treated mice without Li-cotherapy.
The subject of series [8] is calpain. Put plainly: Calpain activity after low dose paclitaxel. The format is in vivo, mice. From the text: FIG. 3: Low dose paclitaxel increases calpain activity. Lithium treatment prevents activation of calpain.
Series [9] deals with calcium release. As to the kind of experiment: Calcium release after low dose paclitaxel. The format is in vivo, mice. Conditions: low doses of paclitaxel. From the text: FIG. 11: Low dose paclitaxel decreases calcium release Lithium treatment prevents loss of calcium release.
The subject of series [10] is NCS-1. As to the kind of experiment: NCS-1 levels in peripheral nerve and brain after low dose paclitaxel. The format is in vivo, mice. From the text: FIG. 12: Low dose paclitaxel decreases NCS-1 levels in peripheral nerve, but not brain NCS-1 expression is maintained with lithium.
Series [11] deals with mice. As to the kind of experiment: Echocardiograms of mice injected with taxol. The format is in vivo. From the text: FIG. 5B: The bottom three panels of the figure attached, is from echocardiograms done on mice injected with taxol. These are the same mice for which the xenograph study was done (shown at the top of the figure). […] These are both measurements of contractility. […] Heart rate was not altered.
Taxol causes cardiac arrhythmias. […] The recent data shown in the bottom three panels of the FIG. 5B, is information compiled from echocardiograms done on mice injected with taxol. These are the same mice upon which the xenograph study was done (shown at the top of the figure). […] These are both measurements of contractility, which was reversed by lithium pre-treatment. […] Heart rate was not altered. The cardiologist who performed the experiment at the request of the inventor(s) was quite impressed and is considering studies in human patients. There are studies in the literature showing that chemotherapy induced changes acutely in contractility can develop into long term heart rhythm problems.

Series [12] deals with calcium signaling in cells. As to the kind of experiment: Protection of calcium signaling by combination treatment / calpastatin expression. Conditions: combination treatment with Li and calpastatin (expression of calpastatin in cells). It counts as cell-based. From the text:
FIG. 7: Combination treatment protects calcium signaling.
FIG. 8: Expression of calpastatin, a natural calpain antagonist, protects calcium signaling in cells.

Sequence of NCS-1 / inositol 1,4,5 trisphosphate receptor (InsP3R) (P62166 2-190 limits assumed, species assumed): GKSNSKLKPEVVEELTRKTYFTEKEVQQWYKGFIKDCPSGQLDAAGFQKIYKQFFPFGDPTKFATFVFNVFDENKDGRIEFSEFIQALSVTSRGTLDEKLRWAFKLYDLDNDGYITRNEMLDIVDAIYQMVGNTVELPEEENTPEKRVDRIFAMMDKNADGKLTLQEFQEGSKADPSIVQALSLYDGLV
Sequence of NCS-1 (Homo sapiens, UniProt P62166) (P62166 whole entry, species assumed): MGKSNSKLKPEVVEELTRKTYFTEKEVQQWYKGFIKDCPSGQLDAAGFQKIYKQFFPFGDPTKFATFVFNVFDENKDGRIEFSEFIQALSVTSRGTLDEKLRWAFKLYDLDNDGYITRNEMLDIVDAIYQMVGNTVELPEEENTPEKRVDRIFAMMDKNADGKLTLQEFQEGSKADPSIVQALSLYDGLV

Regarding `[Cl-].[Li+]` [LiCl, lithium chloride], the “NCS-1 levels (Western blot)” value in series [1] (500 uM and 5.0 mM LiCl in the presence of Taxol, 6 hours, SHSY-5Y) is “protected from the Taxol-induced degradation of NCS-1”; in [1] (LiCl alone (500 uM, 5.0 mM)), “did not reduce NCS-1 levels”. Further, the “Intracellular Ca2+ signals” value in series [2] (500 uM or 5.0 mM LiCl in the presence of Taxol) is reported as “signals similar to that of non-treated cells”; in [2] (LiCl alone) it was “decreased the intracellular signals, but not to the extent seen with Taxol treatment”. For the same molecule, in series [3], the Tumor volume entry was “statistically significant decrease in tumor volume”.

`CCCC(CCC)C(=O)O` [valproic acid]: in series [4], the “NCS-1 binding to InsP3R” value was “prevent neuronal calcium sensor 1 (NCS-1) from binding to the inositol 1,4,5 trisphosphate receptor (InsP3R)”.

Consider `CC(=O)O[C@H]1C(=O)[C@@]2(C)[C@H]([C@H](OC(=O)c3ccccc3)[C@]3(O)C[C@H](OC(=O)[C@H](O)[C@@H](NC(=O)c4ccccc4)c4ccccc4)C(C)=C1C3(C)C)[C@]1(OC(C)=O)CO[C@@H]1C[C@@H]2O` [paclitaxel], for which the “NCS-1 levels (Western blot)” value in series [1] (paclitaxel (Taxol) alone, 800 ng/mL, 6 hours) is given as “decreased NCS-1 levels”; in series [1] (paclitaxel (Taxol) alone, 800 ng/mL, 6 hours, listed as Taxol), “NCS-1 degradation”. In addition, the “Ca2+ response” value in series [2] (Taxol 800 ng/mL for 6 hours, stimulated with 1 uM ATP) is given as “response lower in amplitude than non-treated cells”. In series [2] (Taxol for 6 hours, 200 nM carbachol), the “Intracellular Ca2+ signals” value was “reduced”. For the same molecule, in series [5], the “Binding to NCS-1” value is given as “binds to NCS-1”. In addition, in [6], the Microtubule assembly result is “accelerates microtubule assembly”. Further, the Myelin damage result in series [7] is on record as “evident myelin damage enlarged structures”. In series [8], the Calpain activity entry was “increased calpain activity”. Besides, the Calcium release entry in series [9] is reported as “decreased calcium release”. Moreover, the “NCS-1 levels in peripheral nerve and brain” value in series [10] is “decreased NCS-1 levels in peripheral nerve, but not in the brain”. In series [11] (1 hour after taxol injection), the “End diastolic diameter and fractional shortening (contractility)” value was “end diastolic diameter and fractional shortening were altered”. Also, the Heart rate entry in series [11] (after taxol injection) is reported as “not altered”.

On to `O=C([O-])[O-].[Li+].[Li+]` [lithium carbonate], for which the “NCS-1 binding to InsP3R” value in series [4] is “prevent neuronal calcium sensor 1 (NCS-1) from binding to the inositol 1,4,5 trisphosphate receptor (InsP3R)”.

As for `CN(C)CCCN1c2ccccc2Sc2ccc(Cl)cc21` [chlorpromazine], the “NCS-1 binding to InsP3R” value in series [4] was “prevent neuronal calcium sensor 1 (NCS-1) from binding to the inositol 1,4,5 trisphosphate receptor (InsP3R)”.

B1: calpastatin: a natural calpain antagonist, expressed in cells (protein, UniProt P20810 1-708, looked up)
Calpastatin: MNPTETKAIPVSQQMEGPHLPNKKKHKKQAVKTEPEKKSQSTKLSVVHEKKSQEGKPKEHTEPKSLPKQASDTGSNDAHNKKAVSRSAEQQPSEKSTEPKTKPQDMISAGGESVAGITAISGKPGDKKKEKKSLTPAVPVESKPDKPSGKSGMDAALDDLIDTLGGPEETEEENTTYTGPEVSDPMSSTYIEELGKREVTIPPKYRELLAKKEGITGPPADSSKPIGPDDAIDALSSDFTCGSPTAAGKKTEKEESTEVLKAQSAGTVRSAAPPQEKKRKVEKDTMSDQALEALSASLGTRQAEPELDLRSIKEVDEAKAKEEKLEKCGEDDETIPSEYRLKPATDKDGKPLLPEPEEKPKPRSESELIDELSEDFDRSECKEKPSKPTEKTEESKAAAPAPVSEAVCRTSMCSIQSAPPEPATLKGTVPDDAVEALADSLGKKEADPEDGKPVMDKVKEKAKEEDREKLGEKEETIPPDYRLEEVKDKDGKPLLPKESKEQLPPMSEDFLLDALSEDFSGPQNASSLKFEDAKLAAAISEVVSQTPASTTQAGAPPRDTSQSDKDLDDALDKLSDSLGQRQPDPDENKPMEDKVKEKAKAEHRDKLGERDDTIPPEYRHLLDDNGQDKPVKPPTKKSEDSKKPADDQDPIDALSGDLDSCPSTTETSQNTAKDKCKKAASSSKAPKNGGKAKDSAKTTEETSKPKDD
On to B1, for which the Calcium signaling entry in series [12] was “protected calcium signaling”.
